Laboratory results: patent US12263172B2, “Toll-like receptor agonists for use in the treatment of hepatitis b” (priority 2019, dated 2025)

Test: Phase 1 single-ascending dose (Part 1): safety and tolerability in healthy adults
Format: in vivo, human
Procedure: This ongoing trial is a Phase 1 randomized, double-blind, placebo-controlled study in male and female healthy adult volunteers aged 18-55 years. All volunteers provided written, informed consent.
All volunteers were followed up for 4 weeks and safety and tolerability were continuously assessed throughout the study. All adverse events (AEs) were recorded from the time of consent to the completion visit and were graded using the DAIDS toxicity grading scale. Volunteers also underwent physical examinations, electrocardiograms, vital sign checks and clinical laboratory parameters (chemistry, haematology, urinalysis).

[1] = 1.8 mg and 1.25 mg fasted pooled

## CCCCOc1nc(N)c2[nH]cc(Cc3ccc(CN4CCCC4)cc3)c2n1 [Compound 4]
1.25 mg and 1.8 mg fasted
  time within which fever and flu-like symptoms resolved: 24 to 48 h
1.25 mg fasted and 1.8 mg
  time within which low lymphocyte count resolved: ≤ 72 h
[1]
  subjects with treatment-related headache overall: 5 subjects
  subjects with treatment-related pyrexia overall: 5 subjects
Part 1, all single doses
  subjects with treatment-related pyrexia grade 1: 3 subjects
  subjects with treatment-related pyrexia grade 2: 2 subjects
Part 1 and Part 2
  deaths, other SAEs, or AEs of at least grade 3: no deaths, other SAEs, or AEs of at least grade 3 occurred
All tested single doses
  serious AEs or dose-limiting toxicities: no serious AEs or dose-limiting toxicities
Single dose 0.2 mg fasted
  Any AE (treatment-emergent): 4 (67) n (%)
  Back pain Grade 1 (treatment-emergent AE): 0 n (%)
  Chills Grade 1 (treatment-emergent AE): 0 n (%)
  Contact dermatitis Grade 1 (treatment-emergent AE): 2 (33) n (%)
  Dizziness Grade 1 (treatment-emergent AE): 1 (17) n (%)
  ECG actual value: Heart rate (bpm) Low: 1 (16.7%) n (%)
  ECG actual value: QRS (ms) High: 0 n (%)
  ECG actual value: QTcB (ms) ]450; 480]: 0 n (%)
  ECG actual value: QTcF (ms) ]450; 480]: 0 n (%)
  ECG change from reference: QTcB (ms) [30; 60]: 0 n (%)
  ECG change from reference: QTcF (ms) [30; 60]: 0 n (%)
  Headache Grade 1 (treatment-emergent AE): 1 (17) n (%)
  Headache Grade 2 (treatment-emergent AE): 0 n (%)
  Hypertension Grade 1 (treatment-emergent AE): 0 n (%)
  Hypertension Grade 2 (treatment-emergent AE): 0 n (%)
  Myalgia Grade 1 (treatment-emergent AE): 0 n (%)
  Oropharyngeal pain Grade 1 (treatment-emergent AE): 0 n (%)
  Pyrexia Grade 1 (treatment-emergent AE): 0 n (%)
  Pyrexia Grade 2 (treatment-emergent AE): 0 n (%)
  URTI Grade 1 (treatment-emergent AE): 0 n (%)
  lab toxicity: Amylase (U/L), upwards, Grade 1: 0 n (%)
  lab toxicity: Amylase (U/L), upwards, Grade 2: 1 (16.7%) n (%)
  lab toxicity: Cholesterol (mmol/L), upwards, Grade 1: 0 n (%)
  lab toxicity: Cholesterol (mmol/L), upwards, Grade 2: 1 (16.7%) n (%)
  lab toxicity: Creatine kinase (U/L), upwards, Grade 1: 3 (50.0%) n (%)
  lab toxicity: Creatine kinase (U/L), upwards, Grade 2: 0 n (%)
  lab toxicity: Creatine kinase (U/L), upwards, Grade 4: 0 n (%)
  lab toxicity: Glucose (mmol/L), upwards, Grade 1: 1 (16.7%) n (%)
  lab toxicity: Glucose (mmol/L), upwards, Grade 2: 0 n (%)
  lab toxicity: LDL cholesterol (mmol/L, calculated), upwards, Grade 1: 1 (16.7%) n (%)
  lab toxicity: LDL cholesterol (mmol/L, calculated), upwards, Grade 2: 1 (16.7%) n (%)
  lab toxicity: LDL cholesterol (mmol/L, calculated), upwards, Grade 3: 0 n (%)
  lab toxicity: Lymphocytes (giga/L), downwards, Grade 2: 0 n (%)
  lab toxicity: Lymphocytes (giga/L), downwards, Grade 4: 0 n (%)
  lab toxicity: Neutrophils, segmented (giga/L), downwards, Grade 1: 0 n (%)
  lab toxicity: Neutrophils, segmented (giga/L), downwards, Grade 2: 0 n (%)
  lab toxicity: Platelets (giga/L), downwards, Grade 1: 0 n (%)
  lab toxicity: Sodium (mmol/L), upwards, Grade 1: 0 n (%)
  lab toxicity: Sodium (mmol/L), upwards, Grade 2: 0 n (%)
  lab toxicity: Triglycerides (mmol/L), upwards, Grade 1: 1 (16.7%) n (%)
  lab toxicity: Triglycerides (mmol/L), upwards, Grade 2: 2 (33.3%) n (%)
  lab toxicity: Triglycerides (mmol/L), upwards, Grade 3: 0 n (%)
  lab toxicity: Urate (μmol/L), upwards, Grade 1: 2 (33.3%) n (%)
  subjects with at least one AE for which any study drug or study was permanently stopped: 0 n (%)
  subjects with at least one AE for which any study drug or study was temporarily stopped: 0 n (%)
  subjects with at least one AE possibly related to any study drug: 0 n (%)
  subjects with at least one AE possibly, probably or very likely related to any study drug: 0 n (%)
  subjects with at least one AE probably related to any study drug: 0 n (%)
  subjects with at least one AE very likely related to any study drug: 0 n (%)
  subjects with at least one SAE: 0 n (%)
  subjects with at least one fatal AE: 0 n (%)
  subjects with at least one grade 1 AE: 4 (66.7%) n (%)
  subjects with at least one grade 2 AE: 0 n (%)
  subjects with at least one grade 3 or 4 AE: 0 n (%)
  subjects with low hematocrit levels (non-graded): 5 (83.3%) n (%)
  treatment-related AE: Any AE: 0 n (%)
  treatment-related AE: Chills: 0 n (%)
  treatment-related AE: Dizziness: 0 n (%)
  treatment-related AE: General disorders and administration site conditions: 0 n (%)
  treatment-related AE: Headache: 0 n (%)
  treatment-related AE: Hypertension: 0 n (%)
  treatment-related AE: Myalgia: 0 n (%)
  treatment-related AE: Nervous system disorders: 0 n (%)
  treatment-related AE: Oropharyngeal pain: 0 n (%)
  treatment-related AE: Pyrexia: 0 n (%)
  treatment-related AE: Respiratory, thoracic and mediastinal disorders: 0 n (%)
  treatment-related AE: Vascular disorder: 0 n (%)
  vital signs: Respiratory rate (brpm) Grade 1: 3 (50.0%) n (%)
  vital signs: Respiratory rate (brpm) Grade 2: 0 n (%)
  vital signs: SaO2 (%) 90% to <95%: 1 (16.7%) n (%)
  vital signs: SaO2 (%) 95% to <98%: 4 (66.7%) n (%)
  vital signs: Standing DBP (mmHg) Grade 1: 2 (33.3%) n (%)
  vital signs: Standing DBP (mmHg) Grade 2: 0 n (%)
  vital signs: Standing DBP (mmHg) Grade 3: 0 n (%)
  vital signs: Standing DBP (mmHg) Low: 0 n (%)
  vital signs: Standing SBP (mmHg) Grade 1: 3 (50.0%) n (%)
  vital signs: Standing SBP (mmHg) Low: 0 n (%)
  vital signs: Standing pulse (bpm) High: 3 (50.0%) n (%)
  vital signs: Standing pulse (bpm) Low: 0 n (%)
  vital signs: Supine DBP (mmHg) Grade 1: 0 n (%)
  vital signs: Supine DBP (mmHg) Low: 0 n (%)
  vital signs: Supine SBP (mmHg) Grade 1: 0 n (%)
  vital signs: Supine SBP (mmHg) Grade 2: 0 n (%)
  vital signs: Supine SBP (mmHg) Low: 1 (16.7%) n (%)
  vital signs: Supine pulse (bpm) Low: 2 (33.3%) n (%)
  ↑ AST Grade 3 (laboratory abnormality): 0 n (%)
  ↑ Amylase Grade 2 (laboratory abnormality): 1 (17) n (%)
  ↑ Cholesterol Grade 2 (laboratory abnormality): 1 (17) n (%)
  ↑ Creatine kinase Grade 2 (laboratory abnormality): 0 n (%)
  ↑ Creatine kinase Grade 4 (laboratory abnormality): 0 n (%)
  ↑ Glucose Grade 2 (laboratory abnormality): 0 n (%)
  ↑ LDL cholesterol Grade 2 (laboratory abnormality): 1 (17) n (%)
  ↑ LDL cholesterol Grade 3 (laboratory abnormality): 0 n (%)
  ↑ Lipase Grade 2 (laboratory abnormality): 0 n (%)
  ↑ Pancreatic amylase Grade 2 (laboratory abnormality): 0 n (%)
  ↑ Potassium Grade 2 (laboratory abnormality): 0 n (%)
  ↑ Sodium Grade 2 (laboratory abnormality): 0 n (%)
  ↑ Triglycerides Grade 2 (laboratory abnormality): 2 (33) n (%)
  ↑ Triglycerides Grade 3 (laboratory abnormality): 0 n (%)
  ↓ Bicarbonate Grade 2 (laboratory abnormality): 1 (17) n (%)
  ↓ GFR Grade 2 (laboratory abnormality): 0 n (%)
  ↓ Lymphocytes Grade 2 (laboratory abnormality): 0 n (%)
  ↓ Lymphocytes Grade 4 (laboratory abnormality): 0 n (%)
  ↓ Neutrophils Grade 2 (laboratory abnormality): 0 n (%)
  ↓ Phosphate Grade 2 (laboratory abnormality): 0 n (%)
Single dose 0.6 mg fasted
  Any AE (treatment-emergent): 3 (50) n (%)
  Back pain Grade 1 (treatment-emergent AE): 0 n (%)
  Chills Grade 1 (treatment-emergent AE): 0 n (%)
  Contact dermatitis Grade 1 (treatment-emergent AE): 0 n (%)
  Dizziness Grade 1 (treatment-emergent AE): 0 n (%)
  ECG actual value: Heart rate (bpm) Low: 0 n (%)
  ECG actual value: QRS (ms) High: 0 n (%)
  ECG actual value: QTcB (ms) ]450; 480]: 0 n (%)
  ECG actual value: QTcF (ms) ]450; 480]: 0 n (%)
  ECG change from reference: QTcB (ms) [30; 60]: 3 (50.0%) n (%)
  ECG change from reference: QTcF (ms) [30; 60]: 0 n (%)
  Headache Grade 1 (treatment-emergent AE): 0 n (%)
  Headache Grade 2 (treatment-emergent AE): 0 n (%)
  Hypertension Grade 1 (treatment-emergent AE): 0 n (%)
  Hypertension Grade 2 (treatment-emergent AE): 0 n (%)
  Myalgia Grade 1 (treatment-emergent AE): 0 n (%)
  Oropharyngeal pain Grade 1 (treatment-emergent AE): 1 (17) n (%)
  Pyrexia Grade 1 (treatment-emergent AE): 0 n (%)
  Pyrexia Grade 2 (treatment-emergent AE): 0 n (%)
  URTI Grade 1 (treatment-emergent AE): 0 n (%)
  lab toxicity: Amylase (U/L), upwards, Grade 1: 0 n (%)
  lab toxicity: Amylase (U/L), upwards, Grade 2: 0 n (%)
  lab toxicity: Cholesterol (mmol/L), upwards, Grade 1: 2 (33.3%) n (%)
